Results taken from patent US20250084080A1, “CRYSTALLINE AND SALT FORMS OF AN NLRP3 INHIBITOR” (BioAge Labs, Inc., priority 2023, published 2025).

Key:
Assay type in all cases: physicochemical
[1] = Bulk stability (solid state, 1 week; HPLC, XRPD, IC, color); settings: sodium salt
[2] = as above; design: key to CL (color): A: no change of color; B: slight discoloration; C: medium discoloration; D: strong discoloration
Protocol: Bulk stability of free form Pattern B was evaluated at 25° C./92.5% RH in an open container, at 40° C./75% RH in an open container and at 60° C. in a tight container over 1 week.

[3] = Hygroscopicity by dynamic vapor sorption (DVS) at 25° C.; settings: for Desorp. (%) / Sorp. (%): DVS 25° C.
Summary of the method: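 About 5–10 mg sample was cycled 40-0-95-0-40% RH in 10% steps at 25 °C with water vapour. Equilibrium criterion was 0.002 %/min dm/dt, with a minimum 60 min stability duration and a maximum 360 min per stage.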

[4] = Solubility at 37° C. in buffers and biorelevant media, XRPD of residual solid; settings: for solubility at 2 h / solubility at 24 h: thermodynamic from solid
Summary of the method: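 Solids equivalent to 10 mg anhydrous free form were stirred in 5 mL of each medium (pH 1.2 HCl, pH 4.5 acetate, pH 6.8 phosphate, water, FaSSGF, FaSSIF-v1, FeSSIF-v1, HPMC/Pluronic in acetate) at 37 °C, 400 rpm. Sampled at 2 h and 24 h; supernatant analyzed by HPLC plus pH, 24 h residual solid by XRPD.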

[5] = 25° C./92.5% RH open, 40° C./75% RH open, 60° C. tight container
[6] = Solid state, 25° C./92.5% RH, open
[7] = Solid state, 40° C./75% RH, open
[8] = aqueous buffer, pH 4.5 acetate buffer (50 mM), 37° C.
[9] = aqueous buffer, pH 6.8 phosphate buffer (50 mM), 37° C.
[10] = aqueous with cosolvent or surfactant or cyclodextrin, 2% HPMC + 1% Pluronic F68 in pH 4.5 acetate buffer (50 mM), 37° C.
[11] = fassgf or other biorelevant, FaSSGF, pH 1.6, 37° C.
[12] = simulated gastric fluid, pH 1.2 HCl buffer, 37° C.

Question: Which “Bulk (XRPD)” value ([1]; 25° C./92.5% RH, open) does the source give for `CCOc1cc(C(=O)N(C)Cc2cnc(CO)c3cn[nH]c23)ccc1-c1cc(F)cc(F)c1.[Na]` [Sodium salt Pattern A, 2-ethoxy-3′,5′-difluoro-N-((4-(hydroxymethyl)-1H-pyrazolo[4,3-c]pyridin-7-yl)methyl)-N-methyl-[1,1′-biphenyl]-4-carboxamide sodium salt] here?
Answer: dissociated to free form Pattern A

Question: What about the “Bulk (XRPD)” value ([1]; 60° C., closed) of the same compound?
Answer: No form change

Question: And the “Bulk stability, chemical and physical” value [2, 5]?
Answer: chemically stable but physically unstable

Question: And the “Degradation by HPLC” value [2, 5]?
Answer: no obvious degradation

Question: What about the “Bulk (HPLC) Purity” value [2, 6] of the same compound?
Answer: 98.7%

Question: And the “CL (color)” value [2, 6]?
Answer: A

Question: What about the “Bulk (HPLC) Purity” value [2, 7] of the same compound?
Answer: 98.7%

Question: And the “CL (color)” value [2, 7]?
Answer: A

Question: What about the “Bulk (XRPD)” value ([2]; Solid state, 40° C./75% RH, open, sodium salt) of the same compound?
Answer: dissociated to free form Pattern A

Question: And the “Bulk (HPLC) Purity” value ([2]; Solid state, 60° C., closed)?
Answer: 98.7%

Question: And the “CL (color)” value ([2]; Solid state, 60° C., closed)?
Answer: A

Question: What about the “Desorp. (%)” value ([3]; 0% RH, 1st desorption) of the same compound?
Answer: 0.05%

Question: And the “Sorp. (%)” value ([3]; 0% RH, 1st sorption)?
Answer: 0.05%

Question: And the “Desorp. (%)” value ([3]; 0% RH, 2nd desorption)?
Answer: 0.00%

Question: And the “Sorp. (%)” value ([3]; 0% RH, 2nd sorption)?
Answer: 0.00%

Question: What about the “Desorp. (%)” value ([3]; 10% RH, 1st desorption) of the same compound?
Answer: 0.20%

Question: What about the “Sorp. (%)” value ([3]; 10% RH, 1st sorption) of the same compound?
Answer: 0.17%

Question: And the “Desorp. (%)” value ([3]; 10% RH, 2nd desorption)?
Answer: 0.18%

Question: And the “Sorp. (%)” value ([3]; 10% RH, 2nd sorption)?
Answer: 0.14%

Question: And the “Desorp. (%)” value ([3]; 20% RH, 1st desorption)?
Answer: 0.28%

Question: What about the “Sorp. (%)” value ([3]; 20% RH, 1st sorption) of the same compound?
Answer: 0.23%

Question: What about the “Desorp. (%)” value ([3]; 20% RH, 2nd desorption) of the same compound?
Answer: 0.25%

Question: And the “Sorp. (%)” value ([3]; 20% RH, 2nd sorption)?
Answer: 0.21%

Question: What about the “Desorp. (%)” value ([3]; 30% RH, 1st desorption) of the same compound?
Answer: 0.35%

Question: What about the “Sorp. (%)” value ([3]; 30% RH, 1st sorption) of the same compound?
Answer: 0.30%

Question: What about the “Desorp. (%)” value ([3]; 30% RH, 2nd desorption) of the same compound?
Answer: 0.33%

Question: What about the “Sorp. (%)” value ([3]; 30% RH, 2nd sorption) of the same compound?
Answer: 0.28%

Question: And the “Desorp. (%)” value ([3]; 40% RH, 1st desorption)?
Answer: 0.45%

Question: What about the “Sorp. (%)” value ([3]; 40% RH, 1st sorption) of the same compound?
Answer: 0.38%

Question: What about the “Desorp. (%)” value ([3]; 40% RH, 2nd desorption) of the same compound?
Answer: 0.94%

Question: What about the “Sorp. (%)” value ([3]; 40% RH, 2nd sorption) of the same compound?
Answer: 0.38%

Question: What about the “Sorp. (%)” value ([3]; 50% RH, 1st sorption) of the same compound?
Answer: 0.49%

Question: What about the “Desorp. (%)” value ([3]; 50% RH, 2nd desorption) of the same compound?
Answer: 1.69%

Question: And the “Sorp. (%)” value ([3]; 60% RH, 1st sorption)?
Answer: 0.94%

Question: What about the “Desorp. (%)” value ([3]; 60% RH, 2nd desorption) of the same compound?
Answer: 2.23%

Question: What about the “Sorp. (%)” value ([3]; 70% RH, 1st sorption) of the same compound?
Answer: 1.87%

Question: What about the “Desorp. (%)” value ([3]; 70% RH, 2nd desorption) of the same compound?
Answer: 2.55%

Question: What about the “Sorp. (%)” value ([3]; 80% RH, 1st sorption) of the same compound?
Answer: 2.71%

Question: What about the “Desorp. (%)” value ([3]; 80% RH, 2nd desorption) of the same compound?
Answer: 3.05%

Question: What about the “Sorp. (%)” value ([3]; 90% RH, 1st sorption) of the same compound?
Answer: 4.13%

Question: And the “Desorp. (%)” value ([3]; 90% RH, 2nd desorption)?
Answer: 4.35%

Question: What about the “Sorp. (%)” value ([3]; 95% RH, 1st sorption) of the same compound?
Answer: 6.60%

Question: What about the “Desorp. (%)” value ([3]; 95% RH, 2nd desorption) of the same compound?
Answer: 6.60%

Question: What about the “XRPD after DVS test” value ([3]; DVS at 25° C., sodium salt) of the same compound?
Answer: No form change

Question: And the “pH of supernatant at 24 h” value ([4]; 2% HPMC + 1% Pluronic F68 in pH 4.5 acetate buffer (50 mM), 37° C.)?
Answer: (4.7)

Question: And the “Solubility compared with the free form Pattern A” value ([4]; 2% HPMC+1% Pluronic F68 in acetate buffer (pH 4.5))?
Answer: obviously improved solubility

Question: And the “pH of supernatant at 24 h” value ([4]; FaSSGF, pH 1.6, 37° C.)?
Answer: (1.8)

Question: And the “pH of supernatant at 24 h” value ([4]; FaSSIF-v1, pH 6.5, 37° C.)?
Answer: (6.7)

Question: And the “pH of supernatant at 24 h” value ([4]; FeSSIF-v1, pH 5.0, 37° C.)?
Answer: (5.1)

Question: And the “pH of supernatant at 24 h” value ([4]; Water, 37° C.)?
Answer: (11.1)

Question: And the solubility at 2 h [4, 8]?
Answer: 9.3 µg/mL

Question: What about the solubility at 24 h [4, 8] of the same compound?
Answer: 7.4 µg/mL

Question: What about the solubility at 2 h [4, 9] of the same compound?
Answer: 3.1 µg/mL

Question: What about the solubility at 24 h [4, 9] of the same compound?
Answer: 2.8 µg/mL

Question: And the solubility at 2 h [4, 10]?
Answer: 273 µg/mL

Question: And the solubility at 24 h [4, 10]?
Answer: 260 µg/mL

Question: And the solubility at 2 h [4, 11]?
Answer: 664 µg/mL

Question: And the solubility at 24 h [4, 11]?
Answer: 630 µg/mL

Question: And the “pH of supernatant at 24 h” value ([4]; pH 1.2 HCl buffer, 37° C.)?
Answer: (1.3)

Question: And the “pH of supernatant at 24 h” value ([4]; pH 4.5 acetate buffer (50 mM), 37° C.)?
Answer: (4.6)

Question: What about the “pH of supernatant at 24 h” value ([4]; pH 6.8 phosphate buffer (50 mM), 37° C.) of the same compound?
Answer: (7.0)

Question: What about the solubility at 2 h [4, 12] of the same compound?
Answer: 608 µg/mL

Question: What about the solubility at 24 h [4, 12] of the same compound?
Answer: 511 µg/mL

Question: And the solubility at 2 h ([4]; FaSSIF-v1, pH 6.5, 37° C.)?
Answer: 10.2 µg/mL

Question: And the solubility at 24 h ([4]; FaSSIF-v1, pH 6.5, 37° C.)?
Answer: 13.1 µg/mL

Question: And the solubility at 2 h ([4]; FeSSIF-v1, pH 5.0, 37° C.)?
Answer: 144 µg/mL

Question: And the solubility at 24 h ([4]; FeSSIF-v1, pH 5.0, 37° C.)?
Answer: 149 µg/mL

Question: And the solubility at 2 h ([4]; Water, 37° C.)?
Answer: 7.7 µg/mL

Question: What about the solubility at 24 h ([4]; Water, 37° C.) of the same compound?
Answer: 8.2 µg/mL
